Measurements from patent US20150051232A1, “USE OF (RS)-S-CYCLOPROPYL-S-(4--5-(TRIFLUOROMETHYL)PYRIMIDIN-2-YL]AMINO}PHENYL)SULFOXIMIDE FOR TREATING SPECIFIC TUMOURS” (Bayer Intellectual Property GmbH, priority 2012, published 2015).

Key:
Format in all cases: in vivo, humans
mesotheliomas = assay: Clinical trial in patients with mesotheliomas; conditions: 3 days of treatment and 4 days of non-treatment; for duration of treatment (until disease progression) / tumour response according to RECIST 1.1: oral solution
Excerpt: Patient 1010, epithelioid mesothelioma, progressive disease on study enrollment, systemic pre-therapies with Alimta and cisplatin, gemcitabine, doxorubicin, dekabine
Patient 1016, epithelioid mesothelioma, stage IV, progressive disease on study enrollment, systemic pre-therapies with Alimta and cisplatin, Alimta and carboplatin, Alimta and carboplatin and Avastin, Avastin, Alimta, gemcitabine
Patient 1023, pleuramesothelioma, stage IV, progressive disease on study enrollment, systemic pre-therapies with cisplatin and Alimta
Patient 1024, pleuramesothelioma, stage IV, progressive disease on study enrollment, systemic pre-therapies with cisplatin and Alimta and Avastin, Avastin, carboplatin and Alimta and doxorubicin and dekapine
Oral solution in two dose strengths, ingredients micronized BAY 1000394 (0.2 mg/ml and 4.8 mg/ml), Levomenthol (synonym: 1-menthol, flavouring), macrogol (400) (synonym: polyethylene glycol (400), solubilizer), polysorbate 20 (surfactant)
Dosage twice a day 1.2 mg (patient 1010), 4.8 mg (patient 1016) and 9.6 mg (patients 1023 and 1024), administration protocol 3 days of treatment and 4 days of non-treatment, long-term treatment until disease progression

thyroid cancer = assay: Clinical trial in patients with thyroid cancer
Description: Patient 2006, clinical study 14856, person, papillary thyroid cancer stage IV, progressive disease on study enrollment, systemic pre-therapies with 17-AAG, Sutent, sorafenib, erlotinib and temsirolimus
Patient 1030, clinical study 14484, person, thyroid cancer stage IV, progressive disease on study enrollment, systemic pre-therapies with Adriamycin and cisplatin/carboplatin, carboplatin and Taxol, Nexavar, Sutent
Patient 2006: oral solution, ingredients micronized BAY 1000394 (0.2 mg/ml), levomenthol (synonym: 1-menthol, flavouring) macrogol (400) (synonym: polyethylene glycol (400), solubilizer), polysorbate 20 (surfactant)
Patient 1030: tablet, ingredients BAY 1000394, micronized, 5 mg/tablet, granulated mannitol (filler), microcrystalline cellulose (filler), croscarmellose (disintegrant), magnesium stearate (additive for pressing), red lacquer (coating)
Patient 2006: dosage twice a day 0.3 mg, administration protocol 28 days of treatment and 14 days of non-treatment, long-term treatment until disease progression
Patient 1030: dosage 5 mg in the morning, 10 mg in the evening, administration protocol 3 days of treatment and 4 days of non-treatment, long-term treatment until disease progression

[1] = tested on: squamous cell carcinoma of the oesophagus; assay: Clinical trial in a patient with squamous cell carcinomas of the oesophagus; conditions: 28 days of treatment and 14 days of non-treatment
Description: Patient 3002, squamous cell carcinoma of the oesophagus stage IV, progressive disease on study enrollment, systemic pre-therapy with cisplatin and Xeloda
Oral solution, ingredients micronized BAY 1000394 (0.2 mg/ml), levomenthol (synonym: 1-menthol, flavouring) macrogol (400) (synonym: polyethylene glycol (400), solubilizer), polysorbate 20 (surfactant)
Dosage twice a day 0.5 mg, administration protocol 28 days of treatment and 14 days of non-treatment, long-term treatment until disease progression

[2] = tested on: cholangiocellular carcinoma; assay: Clinical trial in a patient with cholangiocellular carcinoma; conditions: 3 days of treatment and 4 days of non-treatment
Description: Patient 1026, cholangiocellular carcinoma stage IV, progressive disease on study enrollment, systemic pre-therapies with cisplatin/oxaliplatin and Gemzar, 5-fluorouracil and folinic acid
tablet, ingredients BAY 1000394, micronized, 5 mg/tablet, granulated mannitol (filler), microcrystalline cellulose (filler), croscarmellose (disintegrant), magnesium stearate (additive for pressing), red lacquer (coating)
Dosage twice a day 5 mg, administration protocol 3 days of treatment and 4 days of non-treatment, long-term treatment until disease progression

[3] = patient 1010, epithelioid mesothelioma, twice a day 1.2 mg
[4] = patient 1016, epithelioid mesothelioma stage IV, twice a day 4.8 mg
[5] = patient 1023, pleuramesothelioma stage IV, twice a day 9.6 mg
[6] = patient 1024, pleuramesothelioma stage IV, twice a day 9.6 mg
[7] = patient 1030, thyroid cancer stage IV, tablet, 5 mg in the morning, 10 mg in the evening, 3 days of treatment and 4 days of non-treatment
[8] = patient 2006, papillary thyroid cancer stage IV, oral solution, twice a day 0.3 mg, 28 days of treatment and 14 days of non-treatment
[9] = patient 3002, squamous cell carcinoma of the oesophagus stage IV, oral solution, twice a day 0.5 mg
[10] = patient 1026, cholangiocellular carcinoma stage IV, tablet, twice a day 5 mg

`C[C@@H](O)[C@@H](C)Oc1nc(Nc2ccc(S(=N)(=O)C3CC3)cc2)ncc1C(F)(F)F` (mixture of isomers) [Compound A, (RS)—S-cyclopropyl-S-(4-{[4-{[(1R,2R)-2-hydroxy-1-methylpropyl]oxy}-5-(trifluoromethyl)pyrimidin-2-yl]amino}phenyl)sulphoximide] was tested, and the “treatment outcome in mesothelioma patients” value (mesotheliomas; daily dose of 2.4 mg, 9.6 mg and 19.2 mg divided into two identical dosage units) was “Disease stabilization”, the “treatment outcome in thyroid cancer patients” value (thyroid cancer; daily dose of 0.6 mg divided into two identical dosage units, 28 days of treatment and 14 days of non-treatment) was “Disease stabilization” and the “treatment outcome in thyroid cancer patients” value (thyroid cancer; daily dose of 15 mg (5 mg in the morning, 10 mg in the evening), 3 days of treatment and 4 days of non-treatment) was “Disease stabilization”. The “treatment outcome in a patient suffering from squamous cell carcinoma of the oesophagus” value ([1]; daily dose of 1 mg divided into two identical dosage units) was “Disease stabilization” and the “treatment outcome in a patient suffering from cholangiocellular carcinoma” value ([2]; daily dose of 10 mg divided into two identical dosage units) was “Disease stabilization”.
`C[C@@H](O)[C@@H](C)Oc1nc(Nc2ccc([S@](=N)(=O)C3CC3)cc2)ncc1C(F)(F)F` [BAY 1000394, (R)—S-cyclopropyl-S-(4-{[4-{[(1R,2R)-2-hydroxy-1-methylpropyl]oxy}-5-(trifluoromethyl)pyrimidin-2-yl]amino}phenyl)sulphoximide] was tested, and the “duration of treatment (until disease progression)” value (“duration of treatment” for short) (mesotheliomas; [3]) was “about 4 months”, the “tumour response according to RECIST 1.1” value (mesotheliomas; [3]) was “disease stabilization” and the “duration of treatment” value (mesotheliomas; [4]) was “more than 3 months”. The “tumour response according to RECIST 1.1” value (mesotheliomas; [4]) was “disease stabilization”, the “duration of treatment” value (mesotheliomas; [5]) was “about 2 months” and the “tumour response according to RECIST 1.1” value (mesotheliomas; [5]) was “disease stabilization”. The “duration of treatment” value (mesotheliomas; [6]) was “about 2 months”, the “tumour response according to RECIST 1.1” value (mesotheliomas; [6]) was “disease stabilization” and the “duration of treatment” value (thyroid cancer; [7]) was “more than 3 months”. The “tumour response according to RECIST 1.1” value (thyroid cancer; [7]) was “disease stabilization”, the “duration of treatment” value (thyroid cancer; [8]) was “about 2 months” and the “tumour response according to RECIST 1.1” value (thyroid cancer; [8]) was “disease stabilization”. For the same compound, the “duration of treatment” value [1, 9] was “more than 2 months”, the “tumour response according to RECIST 1.1” value [1, 9] was “disease stabilization” and the “duration of treatment” value [2, 10] was “more than 4 months”. For the same compound, the “tumour response according to RECIST 1.1” value [2, 10] was “disease stabilization”.
